One may read the inhibition in vivo as the share of the control response that was lost under treatment. What is called pKi is −log10 of the Ki, conventionally taken in molar units. As usually defined, the pIC50 is the negative decadic logarithm of the IC50, by convention in mol/L.

Experimental findings from ChEMBL document CHEMBL4118257, “Discovery of 2-(3,5-difluoro-4-methylsulfonaminophenyl)propanamides as potent TRPV1 antagonists” (Bioorg Med Chem Lett, 2018) are described below.

Molecules are shown by their SMILES. pIC50, pKi: −log10 of the molar value.

In series [1] the test system is Rattus norvegicus. Description: In vivo antagonist activity at TRPV1 in rat assessed as reduction in capsaicin-induced hypothermia at 3 mg/kg, po relative to control. Format: functional.
Series [2] has as its target Transient receptor potential cation channel subfamily V member 1 (Rattus norvegicus, UniProt O35433). Description: Antagonist activity at recombinant rat TRPV1 expressed in HEK293 cells assessed as reduction in capsaicin-induced Ca2+ flux preincubated for 3 mins followed by capsaicin addition measured by calcium 4-dye based FLIPR assay. Format: cell-based.
Series [3] has as its system Mus musculus. Briefly: Analgesic activity in formalin-induced pain mouse model assessed reduction in pain response at 3 mg/kg, iv measured at 20 to 30 mins post administration by formalin test relative to control. In kind it is functional.
For series [4], the target named is T1, Transient receptor potential cation channel subfamily V member 1 (Homo sapiens, UniProt Q8NER1). Briefly: Antagonist activity at recombinant human TRPV1 expressed in CHOK1 cells assessed as reduction in low pH-induced Ca2+ flux after 15 mins by fluo-4-based FLIPR assay. In kind it is cell-based. On the technique in general: Calcium flux is commonly read through the fluorescence of an indicator in the cells.

The target in series [5] is T1, Transient receptor potential cation channel subfamily V member 1. Briefly: Antagonist activity at recombinant human TRPV1 expressed in CHOK1 cells assessed as reduction in capsaicin-induced Ca2+ flux after 15 mins by fluo-4-based FLIPR assay. The following applies: for pKi: read-out: Ki. In kind it is cell-based.
The test system of series [6] is Mus musculus. Description: Toxicity in formalin-induced pain mouse model assessed as hyperthermia at 10 mg/kg, po. Format: organism-based. The settings on record: in vivo.
For series [7], the target named is T1, Transient receptor potential cation channel subfamily V member 1. Description: Antagonist activity at recombinant human TRPV1 expressed in CHOK1 cells assessed as reduction in temperature-induced Ca2+ flux after 15 mins at 45 degC by fluo-4-based FLIPR assay. Format: cell-based.
Series [8] has as its system Rattus norvegicus. Description: In vivo antagonist activity at TRPV1 in rat assessed as reduction in capsaicin-induced hypothermia at 10 mg/kg, po relative to control. In kind it is functional.

T1 sequence (Q8NER1 whole entry): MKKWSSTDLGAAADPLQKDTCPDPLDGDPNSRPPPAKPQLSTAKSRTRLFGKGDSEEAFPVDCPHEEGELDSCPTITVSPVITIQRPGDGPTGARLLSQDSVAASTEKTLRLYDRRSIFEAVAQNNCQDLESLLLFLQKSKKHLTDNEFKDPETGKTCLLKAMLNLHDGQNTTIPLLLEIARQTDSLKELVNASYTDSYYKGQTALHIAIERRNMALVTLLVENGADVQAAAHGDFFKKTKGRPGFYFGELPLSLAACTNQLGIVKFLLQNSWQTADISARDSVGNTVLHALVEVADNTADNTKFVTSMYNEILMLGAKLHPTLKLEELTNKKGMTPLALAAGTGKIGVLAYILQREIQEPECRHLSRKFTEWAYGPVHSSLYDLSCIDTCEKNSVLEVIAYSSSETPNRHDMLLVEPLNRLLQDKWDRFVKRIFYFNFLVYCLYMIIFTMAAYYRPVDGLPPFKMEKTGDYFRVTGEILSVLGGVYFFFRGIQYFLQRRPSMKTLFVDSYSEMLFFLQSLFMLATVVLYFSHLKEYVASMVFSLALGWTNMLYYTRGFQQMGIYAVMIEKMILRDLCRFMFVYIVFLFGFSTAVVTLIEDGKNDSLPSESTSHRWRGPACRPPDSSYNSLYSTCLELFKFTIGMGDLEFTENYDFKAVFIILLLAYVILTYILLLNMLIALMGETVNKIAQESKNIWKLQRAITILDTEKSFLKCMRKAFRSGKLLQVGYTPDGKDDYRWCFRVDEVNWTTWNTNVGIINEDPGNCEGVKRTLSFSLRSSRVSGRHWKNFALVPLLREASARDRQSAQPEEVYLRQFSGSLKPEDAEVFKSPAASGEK
Transient receptor potential cation channel subfamily V member 1 (Rattus norvegicus, UniProt O35433), sequence (O35433 whole entry): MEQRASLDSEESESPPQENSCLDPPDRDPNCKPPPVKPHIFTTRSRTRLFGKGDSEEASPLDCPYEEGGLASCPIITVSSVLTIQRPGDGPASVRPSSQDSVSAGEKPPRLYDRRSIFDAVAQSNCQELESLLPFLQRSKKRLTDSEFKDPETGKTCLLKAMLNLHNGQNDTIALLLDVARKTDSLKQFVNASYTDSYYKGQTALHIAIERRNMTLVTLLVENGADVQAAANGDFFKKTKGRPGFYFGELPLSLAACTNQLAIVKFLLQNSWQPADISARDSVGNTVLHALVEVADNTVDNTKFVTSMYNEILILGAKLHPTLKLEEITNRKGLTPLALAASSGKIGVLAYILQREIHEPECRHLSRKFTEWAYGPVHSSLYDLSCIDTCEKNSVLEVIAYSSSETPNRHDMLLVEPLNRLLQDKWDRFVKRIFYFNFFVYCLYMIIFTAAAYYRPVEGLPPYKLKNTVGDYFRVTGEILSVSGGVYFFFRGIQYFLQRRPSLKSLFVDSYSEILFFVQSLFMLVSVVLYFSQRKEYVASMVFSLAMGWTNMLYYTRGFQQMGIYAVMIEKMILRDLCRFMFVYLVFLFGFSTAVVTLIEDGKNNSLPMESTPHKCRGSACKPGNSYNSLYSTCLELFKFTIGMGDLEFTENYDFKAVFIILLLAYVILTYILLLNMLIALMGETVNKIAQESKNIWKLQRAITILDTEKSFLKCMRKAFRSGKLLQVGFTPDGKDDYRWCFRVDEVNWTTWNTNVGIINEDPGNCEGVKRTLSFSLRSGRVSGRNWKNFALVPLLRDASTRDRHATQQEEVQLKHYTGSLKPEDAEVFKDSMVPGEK

Turning to `CC1CCN(c2nc(C(F)(F)F)ccc2CNC(=O)C(C)c2cc(F)c(NS(C)(=O)=O)c(F)c2)CC1` (stereo not drawn), the inhibition in vivo at 3 mg/kg in the series with Rattus norvegicus [1] worked out at 57%; with Mus musculus [3], 43%. Moreover, the pKi is 10.00 in series [2] and 9.70 in series [5]. The values for the pIC50 in series [4] and in series [7] were 8.06 and 8.09, respectively. For the same molecule, the Activity entry in the series on Mus musculus [6] is “Toxic”. For the same molecule, in the series on Rattus norvegicus [8], the inhibition in vivo at 10 mg/kg stood at 100%.
With `COc1cc(C(C)C(=O)NCc2ccc(C(F)(F)F)nc2N2CCC(C)CC2)cc(OC)c1NS(C)(=O)=O` (stereo not drawn), the pKi in series [5] was 8.80.
Same read-out and setting: in the case of `CC1CCN(c2nc(C(F)(F)F)ccc2CNC(=O)C(C)c2cc(F)c(NS(C)(=O)=O)c(Br)c2)CC1` (stereo not drawn) it was 9.15.
As for `CC1CCN(c2nc(C(F)(F)F)ccc2CNC(=O)C(C)c2ccc(NS(=O)(=O)C(F)(F)F)c(F)c2)CC1` (stereo not drawn), the Ki result in series [5] is recorded as “Not Active”.
With `CC1CCN(c2nc(C(F)(F)F)ccc2CNC(=O)C(C)c2ccc(NS(C)(=O)=O)c(Br)c2)CC1` (stereo not drawn), the negative logarithm of the Ki (pKi) in series [5] is 8.49.
For `CC1CCN(c2nc(C(F)(F)F)ccc2CNC(=O)C(C)c2ccc(N(CC#N)S(C)(=O)=O)c(F)c2)CC1` (stereo not drawn), in series [5], the Ki result is given as “Not Active”.
Regarding `COc1cc(C(C)C(=O)NCc2ccc(C(F)(F)F)nc2N2CCC(C)CC2)cc(F)c1NS(C)(=O)=O` (stereo not drawn), in series [5], the pKi was 9.52.
On the same count and under the same terms, in the case of `CC1CCN(c2nc(C(F)(F)F)ccc2CNC(=O)C(C)c2ccc(NS(C)(=O)=O)c(Cl)c2)CC1` (stereo not drawn) it was 8.64; in that of `C=CC(=O)N(c1ccc(C(C)C(=O)NCc2ccc(C(F)(F)F)nc2N2CCC(C)CC2)cc1F)S(C)(=O)=O` (stereo not drawn), 8.62.
On to `COc1cc(C(C)C(=O)NCc2ccc(C(F)(F)F)nc2N2CCC(C)CC2)ccc1NS(C)(=O)=O` (stereo not drawn), for which the pKi in series [5] is 9.10.
On the same count and under the same terms, to `CC1CCN(c2nc(C(F)(F)F)ccc2CNC(=O)C(C)c2ccc(NS(N)(=O)=O)c(F)c2)CC1` (stereo not drawn) belongs 8.57.
